Key:
HDAC4 = HDAC4 (Homo sapiens, UniProt P56524); experiment: HDAC enzyme assay; conditions: at 1 µM, initial results (data not shown)
[1] = tested on: human dermal fibroblast (hDF) cells; experiment: Cell cytotoxicity MTS-PMS assay, hDF; format: cell-based; conditions: 72 h, read-out: hDF GI50
HDAC2 = HDAC2 (Homo sapiens, UniProt Q92769); experiment: HDAC enzyme assay; conditions: for inhibition of HDAC2: at 1 µM, initial results (data not shown)
Chain of HDAC2 (Q92769 whole entry): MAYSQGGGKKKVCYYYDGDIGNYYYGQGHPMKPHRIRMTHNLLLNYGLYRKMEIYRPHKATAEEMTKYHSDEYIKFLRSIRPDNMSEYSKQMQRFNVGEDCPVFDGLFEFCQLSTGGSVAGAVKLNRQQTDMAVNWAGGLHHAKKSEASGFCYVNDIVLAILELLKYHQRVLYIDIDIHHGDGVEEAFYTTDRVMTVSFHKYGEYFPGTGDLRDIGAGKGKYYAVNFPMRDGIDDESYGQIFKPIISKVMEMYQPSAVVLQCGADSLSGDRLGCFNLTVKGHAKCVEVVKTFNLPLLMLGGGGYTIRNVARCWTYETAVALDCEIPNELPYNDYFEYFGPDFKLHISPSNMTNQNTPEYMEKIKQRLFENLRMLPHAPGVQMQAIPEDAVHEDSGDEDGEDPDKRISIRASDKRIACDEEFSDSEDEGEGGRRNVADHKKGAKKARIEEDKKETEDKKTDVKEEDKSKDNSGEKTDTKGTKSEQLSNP

Chain of HDAC4 (P56524 whole entry): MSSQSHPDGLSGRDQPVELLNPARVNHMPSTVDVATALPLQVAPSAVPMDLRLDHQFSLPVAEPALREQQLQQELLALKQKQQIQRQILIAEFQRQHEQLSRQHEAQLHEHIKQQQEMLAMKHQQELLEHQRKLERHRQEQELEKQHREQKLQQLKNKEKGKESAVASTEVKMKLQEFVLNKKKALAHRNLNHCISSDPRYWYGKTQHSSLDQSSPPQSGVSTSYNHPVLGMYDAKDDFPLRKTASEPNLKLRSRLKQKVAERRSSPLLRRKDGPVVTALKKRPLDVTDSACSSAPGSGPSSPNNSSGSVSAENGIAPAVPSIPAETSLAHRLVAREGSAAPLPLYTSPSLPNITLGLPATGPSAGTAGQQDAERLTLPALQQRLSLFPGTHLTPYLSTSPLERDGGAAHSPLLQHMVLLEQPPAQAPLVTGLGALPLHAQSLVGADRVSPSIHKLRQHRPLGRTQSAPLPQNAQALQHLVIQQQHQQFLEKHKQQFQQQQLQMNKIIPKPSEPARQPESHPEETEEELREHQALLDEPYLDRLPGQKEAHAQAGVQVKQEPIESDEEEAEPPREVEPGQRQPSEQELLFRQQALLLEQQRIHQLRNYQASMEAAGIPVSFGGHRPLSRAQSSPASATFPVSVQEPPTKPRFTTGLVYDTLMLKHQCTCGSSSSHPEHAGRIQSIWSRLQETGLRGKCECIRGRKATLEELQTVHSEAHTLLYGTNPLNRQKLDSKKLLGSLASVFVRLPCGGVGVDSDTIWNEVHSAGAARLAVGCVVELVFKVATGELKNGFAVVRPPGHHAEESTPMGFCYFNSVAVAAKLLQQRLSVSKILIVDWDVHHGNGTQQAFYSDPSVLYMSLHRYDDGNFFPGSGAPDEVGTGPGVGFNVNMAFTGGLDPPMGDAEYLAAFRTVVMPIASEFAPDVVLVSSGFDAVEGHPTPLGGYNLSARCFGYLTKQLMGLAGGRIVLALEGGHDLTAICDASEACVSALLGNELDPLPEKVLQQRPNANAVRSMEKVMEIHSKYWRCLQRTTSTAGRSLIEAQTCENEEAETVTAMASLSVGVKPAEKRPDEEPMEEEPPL

Row | SMILES | inhibition of HDAC4 (HDAC4) | GI50 [1] | inhibition of HDAC2 (HDAC2) | selectivity for Class I HDACs (HDAC2; HDAC2 versus Class II HDACs)
1 | O=C(CCCCCCC(=O)Nc1ccccc1)NO [compound 2, suberoylanilide hydroxamic acid, reference compound] | completely inhibited | – | – | –
2 | O=C(CCCC(=O)NCCc1ccccc1)NO [compound 3, N^1-Hydroxy-N^5-phenethylglutaramide] | relatively little inhibition of HDAC4 | > 100 µM | selectively inhibited HDAC2 | –
3 | CCOC(=O)NCCCC(=O)NCCc1ccccc1 [compound 1, Ethyl 3-(phenethylcarbamoyl)propylcarbamate] | relatively little inhibition of HDAC4 | > 100 µM | selectively inhibited HDAC2 | over 3,500 fold

Reference: PMC3879121 (Journal of natural products, 2013)
